Values after ≈ are worked out from the molar mass of the structure shown. Where a name gives a salt, the structure may show the parent alone. Read-outs that look alike come from different tables or passages of the source.
Key:
ribosome = experiment: Determination of molecular target (ribosome by default); format: biochemical, Pseudomonas aeruginosa; details: no accessory protein inhibited
Method: Nitrocellulose binding assays were used to determine inhibition of GDP exchange by EF-Tu as previously described in Bullard et al. “Effects of domain exchanges between Escherichia coli and mammalian mitochondrial EF-Tu on interactions with guanine nucleotides, aminoacyl-tRNA and ribosomes” 1999, Biochim. Biophys. Acta 1446:102-114, which is incorporated herein by reference, with the exception that the enzyme (1 μM) was pre-incubated with 132 μM compound for 15 min prior to the addition of [^3H]GDP. EF-Ts stimulates the exchange of GDP bound by EF-Tu. The ability of compounds to inhibit EF-Ts stimulation of GDP exchange by EF-Tu was measured in assays as described for EF-Tu/GDP exchange with the exceptions that EF-Ts was present at 0.05 μM and the time for the reaction was decreased from 30 min to 30 sec.
Assays for ribosome-dependent GTP hydrolysis by EF-G were carried out in 50 μl reactions containing: 50 mM Tris-HCl (pH 7.5), 10 mM MgCl2, 70 mM NH4Cl, 1 mM dithiothreitol (DTT), 1.8 mM GTP, 0.4 μM P. aeruginosa ribosomes and 0.2 μM EF-G. Final concentrations of compounds in the assays were 132 μM. The amount of GTPase activity was determined by measurement of the amount of Pi liberated using a colorimetric GTPase assay kit (Novus Biologicals) per manufacturer's directions.

[1] = test system: P. aeruginosa aminoacylation/translation (A/T) protein synthesis system (ribosomes, PheRS, EF-Tu, EF-Ts, EF-G); experiment: aminoacylation/translation (A/T) scintillation proximity assay; format: biochemical, Pseudomonas aeruginosa; details: all P. aeruginosa components
Method: A scintillation proximity assay (SPA) was developed using P. aeruginosa components for the aminoacylation/translation (A/T) assay as described in Ribble et al. The complete assay (50 μl) contained 50 mM Tris-HCl (pH 7.5), 25 mM KCl, 10 mM MgCl2, 0.03 mM spermine, 1.5 mM ATP, 0.5 mM GTP, 40 μM [^3H]Phenylalanine (Phe) (75 cpm/pmol) and 0.3 mg/ml polyU mRNA. To maintain constant levels of ATP and GTP the assay contained a nucleotide regeneration system composed of 4 mM phosphoenolpyruvate (PEP) and 0.025 Units/μl pyruvate kinase (PK). The concentration of ribosomes and proteins in the assay were as follows: ribosome (0.2 μM), PheRS (0.1 μM), EF-Tu (1 μM), EF-Ts (0.05 μM) and EF-G (0.2 μM). These concentrations were arrived at through sequential rounds of optimization: each concentration represents the concentration just below the saturation point for each component of the reaction in the titration.
The screening reactions were carried out in 96 well microtiter plates (Costar). Test compounds were equilibrated by addition of 33 μl of the protein/substrate mix (without tRNA) to 2 μl of chemical compound (3.2 mM) dissolved in 100% DMSO. […] Reactions were stopped by the addition of 5 μl of 0.5 M EDTA. 200 μg of SPA beads (RNA Binding Beads (YSI), Perkin Elmer) in 150 μl of 300 mM citrate buffer (pH 6.2) were added. The plates were analyzed using a 1450 Microbeta (Jet) liquid scintillation and luminescence counter (Wallac). Assays to determine IC50 values were as described above with the test compounds serially diluted from 200 μM to 0.4 μM. The concentration ranges of antibiotics as controls were as follows: spiramycin (0.02 μM to 20.0 μM), tylosin (0.02 μM to 20.0 μM), and fusidic acid (4 μM to 512 μM).

P. aeruginosa PheRS = P. aeruginosa PheRS (Pseudomonas aeruginosa, UniProt Q9I0A3+Q9I0A4); experiment: PheRS tRNA aminoacylation SPA assay; format: biochemical; details: for Inhibition of Phenylalanyl-tRNA synthetase (PheRS), target found: 132 μM compound
Sequence of P. aeruginosa PheRS (Q9I0A3 whole entry): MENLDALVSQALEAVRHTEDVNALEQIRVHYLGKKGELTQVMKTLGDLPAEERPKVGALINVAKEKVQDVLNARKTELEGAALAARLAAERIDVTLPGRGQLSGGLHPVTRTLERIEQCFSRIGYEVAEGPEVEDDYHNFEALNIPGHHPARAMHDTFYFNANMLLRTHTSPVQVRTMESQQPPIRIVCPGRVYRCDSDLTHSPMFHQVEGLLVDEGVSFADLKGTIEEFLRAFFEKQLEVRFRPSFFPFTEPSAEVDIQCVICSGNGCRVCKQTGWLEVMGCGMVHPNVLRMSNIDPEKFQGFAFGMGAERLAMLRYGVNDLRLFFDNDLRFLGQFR
Sequence of P. aeruginosa PheRS (Q9I0A4 whole entry): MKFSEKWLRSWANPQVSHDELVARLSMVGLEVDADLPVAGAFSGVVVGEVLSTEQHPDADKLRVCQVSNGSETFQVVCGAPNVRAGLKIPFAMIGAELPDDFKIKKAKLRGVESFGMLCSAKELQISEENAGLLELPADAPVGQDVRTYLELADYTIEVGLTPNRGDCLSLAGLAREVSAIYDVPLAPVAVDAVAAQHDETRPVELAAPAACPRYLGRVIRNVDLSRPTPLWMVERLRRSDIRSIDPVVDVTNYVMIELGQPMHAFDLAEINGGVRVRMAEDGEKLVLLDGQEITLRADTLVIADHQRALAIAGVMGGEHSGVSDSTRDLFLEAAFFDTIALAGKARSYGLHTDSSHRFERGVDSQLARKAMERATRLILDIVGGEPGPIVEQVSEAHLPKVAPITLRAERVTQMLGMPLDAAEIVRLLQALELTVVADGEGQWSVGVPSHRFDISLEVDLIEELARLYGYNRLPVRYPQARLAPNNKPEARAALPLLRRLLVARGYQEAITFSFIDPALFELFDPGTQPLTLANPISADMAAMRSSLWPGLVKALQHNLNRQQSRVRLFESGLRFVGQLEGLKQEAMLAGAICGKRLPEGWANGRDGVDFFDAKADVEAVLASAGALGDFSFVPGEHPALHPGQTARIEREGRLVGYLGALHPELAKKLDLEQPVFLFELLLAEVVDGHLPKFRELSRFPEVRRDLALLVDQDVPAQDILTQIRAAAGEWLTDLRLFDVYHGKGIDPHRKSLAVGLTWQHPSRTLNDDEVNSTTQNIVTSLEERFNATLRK
Method: SPA assays to determine inhibition of PheRS by chemical compounds were as described in Bullard et al. “Expression and characterization of a human mitochondrial phenylalanyl-tRNA synthetase” 1999, J. Mol. Biol. 288:567-577, which his incorporated herein by reference and in Ribble et al. Exceptions were that the enzyme mix was pre-incubated with 132 μM compound for 15 min prior to addition of tRNA. The reactions were stopped by the addition of 5 μl of 0.5 M EDTA. 400 μg of SPA beads (Ysi poly-L-lysine coated beads, Perkin Elmer) in 150 μl of 300 mM citrate buffer (pH 2.0) were added and the plates were analyzed as above.

E. coli (ATCC 25922) = experiment: Broth microdilution MIC; format: cell-based; details: Escherichia coli
E. coli tolC mutant = experiment: Broth microdilution MIC; format: cell-based; details: Escherichia coli, read-out: MIC E. coli tolC (efflux)
[2] = test system: Enterococcus faecalis (ATCC 29212); experiment: Broth microdilution MIC; format: cell-based
[3] = test system: Haemophilus influenzae (ATCC 49766); experiment: Broth microdilution MIC; format: cell-based; details: ATCC49766
[4] = test system: Moraxella catarrhalis (ATCC 25238); experiment: Broth microdilution MIC; format: cell-based; details: ATCC25238
[5] = test system: Pseudomonas aeruginosa (ATCC 47085); experiment: Broth microdilution MIC; format: cell-based
[6] = test system: Pseudomonas aeruginosa hypersensitive strain (ATCC 35151); experiment: Broth microdilution MIC; format: cell-based; details: ATCC35151, read-out: MIC P. aeruginosa (hypersensitive)
[7] = test system: Staphylococcus aureus (ATCC 29213); experiment: Broth microdilution MIC; format: cell-based; details: ATCC29213, read-out: MIC S. aureus
[8] = test system: Streptococcus pneumonia (ATCC 49619); experiment: Broth microdilution MIC; format: cell-based; details: Streptococcus pneumoniae
[9] = test system: Gram (+) bacteria (E. faecalis or S. aureus); experiment: Time-kill experiments, Gram (+); details: four-times the MIC, 0 to 24 hours
Method: (§1) Time-kill experiments were performed according to the CLSI guidelines M26-A. H. influenzae (ATCC 49766), E. faecalis ATCC 29212, and Staphylococcus aureus (ATCC 29213) were from the American Type Culture Collection (Manassas, Va.). Growth media were Brain Heart Infusion and Trypticase Soy Broth from Remel (Lenexa, Kans.). For the experiments, 10 mL of broth medium was inoculated with 0.1 mL of a fresh overnight culture and grown at 35° C. with shaking (200 rpm) for 2-3 hours. Pre-warmed flasks containing 10 mL of medium alone or 10 mL of medium containing a test compound at 4×MIC were then inoculated with 0.1 mL of the exponentially growing cultures. Samples were removed at 0, 2, 4, 6, and 24 h, and serial dilutions were plated on blood agar to allow for colony enumeration and calculation of the live cell density.
(§2) Time-kill experiments were performed according to the CLSI guideline M26-A to determine the efficacy against both Gram (+) and a Gram (−) organisms. […] The Gram (+) bacteria used was either E. faecalis or S. aureus, while the Gram (−) bacteria was H. influenzae. […] The compounds were tested in these assays at four-times the MIC and between 0 and 24 hours.

H. influenzae = experiment: Time-kill experiments, Gram (−); details: four-times the MIC, 0 to 24 hours
Method: as §1, §2

[10] = ATCC25922, ATCC 25922, read-out: MIC E. coli
[11] = ATCC29212, ATCC 29212, read-out: MIC E. faecalis
[12] = ATCC47085, ATCC 47085, read-out: MIC P. aeruginosa
[13] = ATCC49619, ATCC 49619, read-out: MIC S. pneumo

SMILES | Target found: ribosomal inhibitor (ribosome) | IC50 [1] | IC50 (P. aeruginosa PheRS) | Inhibition of Phenylalanyl-tRNA synthetase (PheRS), target found (P. aeruginosa PheRS) | MIC (E. coli (ATCC 25922); ATCC25922, read-out: MIC E. coli) | MIC (E. coli tolC mutant) | MIC ([2]; ATCC29212, read-out: MIC E. faecalis) | MIC [3] | MIC [4] | MIC ([5]; ATCC47085, read-out: MIC P. aeruginosa) | MIC [6] | MIC [7] | MIC ([8]; ATCC49619, read-out: MIC S. pneumo) | Time-kill mode of action against Gram (+) bacteria [9] | Time-kill mode of action against Gram (−) bacteria (H. influenzae) | MIC (E. coli (ATCC 25922); [10]) | MIC [2, 11] | MIC [5, 12] | MIC [8, 13]
NC(N)=NN=C(/C=C/c1ccc([N+](=O)[O-])o1)/C=C/c1ccc([N+](=O)[O-])o1 [2-[1,5-bis(5-nitrofuran-2-yl)penta-1,4-dien-3-ylideneamino]guanidine hydrochloride] | ribosomal inhibitor | – | – | – | – | – | – | – | – | – | – | – | – | – | – | – | – | – | –
O=C(/C=C/c1ccccc1)c1ccc(O)cc1O [Class 1, (2E)-1-(2,4-Dihydroxyphenyl)-3-phenyl-2-propen-1-one] | – | 33 µM | 37 µM | inhibit | > 128 µg/mL | > 128 µg/mL | > 128 µg/mL | 32 µg/mL (≈ 133 µM) | 64 µg/mL (≈ 266 µM) | > 128 µg/mL | > 128 µg/mL | 128 µg/mL (≈ 533 µM) | > 128 µg/mL | bactericidal | bactericidal | – | – | – | –
COC(=O)c1c(C)c2c(c(C)c1O)OC(=O)c1c(C)c(Cl)c(O)c(Cl)c1O2 [Class 2, Methyl 2,4-dichloro-3,8-dihydroxy-1,6,9-trimethyl-11-oxo-11H-dibenzo[b,e][1,4]dioxepine-7-carboxylate] | – | 59 µM | 9.8 µM | inhibit | – | 16 µg/mL (≈ 38.7 µM) | – | 32 µg/mL (≈ 77.4 µM) | 1 µg/mL (≈ 2.42 µM) | – | 8 µg/mL (≈ 19.4 µM) | 128 µg/mL (≈ 310 µM) | – | bacteriostatic | bacteriostatic | > 128 µg/mL | 8 µg/mL (≈ 19.4 µM) | 128 µg/mL (≈ 310 µM) | 64 µg/mL (≈ 155 µM)
O=C(N/N=C/c1ccc([N+](=O)[O-])o1)c1cc([N+](=O)[O-])cc([N+](=O)[O-])c1O [Class 4, N-[(1E)-2-(5-nitro(2-furyl))-1-azavinyl](2-hydroxy-3,5-dinitrophenyl)carboxamide] | – | 50.2 µM | 40 µM | – | – | 2 µg/mL (≈ 5.48 µM) | – | 32 µg/mL (≈ 87.6 µM) | 32 µg/mL (≈ 87.6 µM) | – | 32 µg/mL (≈ 87.6 µM) | 32 µg/mL (≈ 87.6 µM) | – | bacteriostatic | bacteriostatic | > 128 µg/mL | 128 µg/mL (≈ 350 µM) | 32 µg/mL (≈ 87.6 µM) | 128 µg/mL (≈ 350 µM)
NC(N)=NN=C(/C=C/c1ccc([N+](=O)[O-])o1)/C=C/c1ccc([N+](=O)[O-])o1 [Class 5, 2-[1,5-bis(5-nitrofuran-2-yl)penta-1,4-dien-3-ylideneamino]guanidine hydrochloride] | – | 27.5 µM | – | – | – | 2 µg/mL | – | 16 µg/mL | 64 µg/mL | – | 4 µg/mL | 16 µg/mL | – | bactericidal | bactericidal | > 128 µg/mL | 128 µg/mL | 128 µg/mL | 32 µg/mL
Cc1cc(C)nc(NC(=N)Nc2ccc(OCc3ccc(Cl)cc3)cc2)n1 [Class 6, (4,6-dimethylpyrimidin-2-yl)[({4-[(4-chlorophenyl)methoxy]phenyl}amino)iminomethyl]amine] | ribosomal inhibitor | 25.8 µM | – | – | – | 16 µg/mL (≈ 41.9 µM) | – | 32 µg/mL (≈ 83.8 µM) | 64 µg/mL (≈ 168 µM) | – | 16 µg/mL (≈ 41.9 µM) | 32 µg/mL (≈ 83.8 µM) | – | bactericidal | bactericidal | 64 µg/mL (≈ 168 µM) | 16 µg/mL (≈ 41.9 µM) | 64 µg/mL (≈ 168 µM) | 32 µg/mL (≈ 83.8 µM)
O=C(N/N=C/c1ccc([N+](=O)[O-])o1)c1cc([N+](=O)[O-])cc([N+](=O)[O-])c1O [N-[(1E)-2-(5-nitro(2-furyl))-1-azavinyl](2-hydroxy-3,5-dinitrophenyl)carboxamide] | – | – | – | inhibit | – | – | – | – | – | – | – | – | – | – | – | – | – | – | –
